Molecular target: T1, microsomal triglyceride transfer protein (MTP) (Mesocricetus auratus, UniProt P55158)
T1 construct: The supernatant comprising the soluble MTP is dialysed against Tris/HCl 150 mM; from tissue; host or cells: golden hamster liver microsomes, deoxycholate-solubilised supernatant, dialysed
T1 sequence (P55158 19-895): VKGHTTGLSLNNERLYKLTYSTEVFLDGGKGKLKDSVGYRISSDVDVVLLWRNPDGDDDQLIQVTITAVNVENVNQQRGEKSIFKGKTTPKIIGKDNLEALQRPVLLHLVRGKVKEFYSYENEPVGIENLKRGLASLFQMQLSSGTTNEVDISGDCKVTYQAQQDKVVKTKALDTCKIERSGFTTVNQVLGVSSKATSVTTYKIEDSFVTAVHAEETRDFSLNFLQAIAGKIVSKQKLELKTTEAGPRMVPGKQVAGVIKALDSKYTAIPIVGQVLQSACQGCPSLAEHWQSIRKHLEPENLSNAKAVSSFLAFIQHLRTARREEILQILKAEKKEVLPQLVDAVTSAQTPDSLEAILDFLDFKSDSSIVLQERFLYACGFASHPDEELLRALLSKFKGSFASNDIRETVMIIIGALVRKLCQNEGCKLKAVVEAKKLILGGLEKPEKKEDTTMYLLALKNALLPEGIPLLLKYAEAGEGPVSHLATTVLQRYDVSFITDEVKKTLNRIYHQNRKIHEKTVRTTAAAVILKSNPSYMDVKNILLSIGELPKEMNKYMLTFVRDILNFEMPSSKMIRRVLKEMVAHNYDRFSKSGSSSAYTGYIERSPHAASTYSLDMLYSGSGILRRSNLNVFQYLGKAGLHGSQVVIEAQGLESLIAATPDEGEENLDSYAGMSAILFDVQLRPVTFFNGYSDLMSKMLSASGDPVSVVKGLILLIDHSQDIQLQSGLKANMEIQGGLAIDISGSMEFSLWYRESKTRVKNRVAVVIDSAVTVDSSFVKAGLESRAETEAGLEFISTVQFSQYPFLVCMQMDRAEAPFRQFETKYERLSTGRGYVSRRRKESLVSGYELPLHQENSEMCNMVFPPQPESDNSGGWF
Test: Inhibition of MTP activity: transfer of [3H]-triolein from donor liposomes to biotinylated LDL, SPA
Format: biochemical
Conditions: MTP from golden hamster liver; incubation 18-24 hours at 37° C.; read-out: IC50, concentration that allows a 50% inhibition of MTP
Procedure: Analysis of the Inhibition of MTP Activity
The inhibition of the activity of microsomal triglyceride transfer protein (MTP) was tested by using the following operating protocol.
The inhibition of MTP activity with a compound can be quantified by observing the inhibition of the transfer of a labelled triglyceride, from a donor particle to an acceptor particle, in the presence of MTP. The procedure for the preparation of MTP is based on the method by Wetterau and Zilversmit (Biochem. Biophys. Acta (1986) 875, 610). A few grams of golden hamster liver are taken and then rinsed several times in a 250 mM sucrose solution at 0° C. All the following steps proceed at +4° C. A homogenate at a concentration of 50% in 250 mM sucrose is prepared using a Teflon mill and then centrifuged for 10 minutes at 10 000×g at +4° C. The supernatant is then centrifuged at 105 000×g for 75 minutes at +4° C. The supernatant is discarded and the microsomal pellet is taken up in 3 ml (per g of starting liver) of Tris/HCl 150 mM pH 8.0. 1-ml aliquot fractions are stored at −80° C. until the time of use.
After thawing a fraction of microsomes (1 ml), 12 ml of refrigerated Tris/HCl 50 mM, KCl 50 mM, MgCl2 5 mM pH 7.4 buffers and 1.2 ml of deoxycholate (0.54% in water) are added. After incubation for 30 minutes at +4° C. with gentle agitation, the suspension is centrifuged at 105 000×g for 75 minutes. The supernatant comprising the soluble MTP is dialysed against Tris/HCl 150 mM, NaCl 40 mM, EDTA 1 mM, 0.02% sodium azide pH 7.4 buffer (5 times one litre over 2-3 days). The MTP is stored at +4° C., is stable for at least 30 days and is used in unmodified form in the test.
The donor particles (liposomes) are prepared from 208 μl of L-phosphatidylcholine at a concentration of 10 mg/ml in chloroform, and 480 μl of [3H]-triolein at a concentration of 0.5 mCi/ml in toluene. After stirring, the solution is evaporated under nitrogen, taken up in 6 ml of Tris/HCl 50 mM, KCl 50 mM, MgCl2 5 mM pH 7.4 buffer and incubated in an ultrasound bath for 30 minutes at room temperature. The liposomes are stored at +4° C. and sonicated again for 10 minutes before each use.
The acceptor particles are biotinylated low density lipoproteins (LDL-biot). These particles are supplied by the company Amersham.
The reaction mixture is prepared in untreated ½ well white plates (Corning Costar) by addition, in the following order, of: 5 μl of HEPES 50 mM, NaCl 150 mM, BSA 0.1% (w/v), 0.05% sodium azide (w/v), pH 7.4 buffer; 5 μl of liposome; 5 μl of LDL-biot; 5 μl of test products in DMSO; 5 μl of MTP. After incubation for 18-24 hours at 37° C., the reaction is stopped by adding 100 μl of Amersham SPA (Scintillation Proximity Assay) beads coupled to streptavidin, and the radioactivity is counted using a Top Count (Packard) machine at least one hour later. The inhibition of the transfer of the triglycerides with a compound is reflected by a reduction in the transferred radioactivity.
The results are expressed in terms of the IC50, i.e. the concentration that allows a 50% inhibition of MTP.

| Structure (SMILES) | IC50 [nM] |
| --- | --- |
| Cc1cccc(C(=O)Nc2cccc(OC3CCN(CC4CCOC4)CC3)c2)c1-c1ccc(OC(F)(F)F)cc1 (stereo not shown) [Example 78, 6-methyl-N-[3-[[1-[(tetrahydro-3-furanyl)-methyl]-4-piperidinyl]oxy]phenyl]-4′-(tri-fluoromethoxy)[1,1′-biphenyl]-2-carbox-amide] | 447 |
| Cc1cccc(C(=O)Nc2cccc(OC3CCN(C(=O)NCc4ccccc4)CC3)c2)c1-c1ccc(OC(F)(F)F)cc1 [Example 35, 4-[3-[[[6-methyl-4′-(trifluoromethoxy)[1,1′-biphenyl]-2-yl]carbonyl]amino]phenoxy]-N-(phenylmethyl)-1-piperidinecarbox-amide] | 120 |
| CCOC(=O)CCC(=O)N1CCC(Oc2cccc(NC(=O)c3cccc(C)c3-c3ccc(OC(F)(F)F)cc3)c2)CC1 [Example 96, ethyl 4-[3-[[[6-methyl-4′-(trifluoromethoxy)-[1,1′-biphenyl]-2-yl]carbonyl]amino]-phenoxy]-γ-oxo-1-piperidinebutanoate] | 128 |
| Cc1cccc(C(=O)Nc2cccc(OC3CCN(C(=O)Nc4cccc(C(F)(F)F)c4)CC3)c2)c1-c1ccc(OC(F)(F)F)cc1 [Example 24, 4-[3-[[[6-methyl-4-(trifluoromethoxy)[1,1′-4-biphenyl]-2-yl]carbonyl]amino]phenoxy]-N-[3-(trifluoromethyl)phenyl]-1-piperidine-carboxamide] | 459 |
| Cc1ccc(C(=O)N2CCC(Oc3cccc(NC(=O)c4cccc(C)c4-c4ccc(OC(F)(F)F)cc4)c3)CC2)cc1 [Example 116, 6-methyl-N-[3-[[1-(4-methylbenzoyl)-4-piperidinyl]oxy]phenyl]-4′-(trifluorometh-oxy)[1,1′-biphenyl]-2-carboxamide] | 49.4 |
| COC(=O)CC(=O)N1CCC(Oc2cccc(NC(=O)c3ccccc3-c3ccc(OC(F)(F)F)cc3)c2)CC1 [Example 125, methyl β-oxo-4-[3-[[[4′-(trifluoromethoxy)-[1,1′-biphenyl]-2-yl]carbonyl]amino]-phenoxy]-1-piperidinepropanoate] | 252 |
| COc1ccc(C(=O)N2CCC(Oc3cccc(NC(=O)c4ccccc4-c4ccc(OC(F)(F)F)cc4)c3)CC2)cc1 [Example 138, N-[3-[[1-(4-methoxybenzoyl)-4-piperidin-yl]oxy]phenyl]-4′-(trifluoromethoxy)[1,1′-biphenyl]-2-carboxamide] | 221 |
| CC(=O)N1CCC(Oc2cccc(NC(=O)c3cccc(C)c3-c3ccc(OC(F)(F)F)cc3)c2)CC1 [Example 4, N-[3-[(1-acetyl-4-piperidinyl)oxy]phenyl]-6-methyl-4′-(trifluoromethoxy)[1,1′-biphenyl]-2-carboxamide] | 344 |
| O=C(Nc1cccc(OC2CCN(C(=O)c3ccc([N+](=O)[O-])cc3)CC2)c1)c1ccccc1-c1ccc(OC(F)(F)F)cc1 [Example 112, N-[3-[[1-(4-nitrobenzoyl)-4-piperidinyl]-oxy]phenyl]-4′-(trifluaromethoxy)[1,1′-biphenyl]-2-carboxamide] | 241 |

Continued by falling IC50, values first:

| IC50 [nM] | Structure (SMILES) |
| --- | --- |
| 469 | COc1ccc(CC(=O)N2CCC(Oc3cccc(NC(=O)c4ccccc4-c4ccc(OC(F)(F)F)cc4)c3)CC2)cc1OC [Example 110, N-[3-[[1-[2-(3,4-dimethoxyphenyl)acetyl]-4-piperidinyl]oxy]phenyl]-4′-(trifluoro-methoxy)[1,1′-biphenyl]-2-carboxamide] |
| 421 | Cc1cccc(C(=O)Nc2cccc(OC3CCN(C(=O)OC(C)(C)C)CC3)c2)c1-c1ccc(OC(F)(F)F)cc1 [Example 1, 1,1-dimethylethyl 4-[3-[[[6-methyl-4′-(trifluoromethoxy)[1,1′-biphenyl]-2-yl]carbonyl]amino]phenoxy]-1-piperidine-carboxylate] |
| 392 | Cc1ccc(CN2CCC(Oc3cccc(NC(=O)c4cccc(C)c4-c4ccc(OC(F)(F)F)cc4)c3)CC2)cc1 [Example 85, 6-methyl-N-[3-[[1-[(4-methylphenyl)-methyl]-4-piperidinyl]oxy]phenyl]-4′-(trifluoromethoxy)[1,1′-biphenyl]-2-carboxamide] |
| 369 | Cc1cccc(C(=O)Nc2cccc(OC3CCN(C(=O)NC(C)C)CC3)c2)c1-c1ccc(OC(F)(F)F)cc1 [Example 30, N-(1-methylethyl)-4-[3-[[[6-methyl-4′-(trifluoromethoxy)[1,1′-biphenyl]-2-yl]-carbonyl]amino]phenoxy]-1-piperidine-carboxamide] |
| 309 | CCOC(=O)CCC(=O)N1CCC(Oc2cccc(NC(=O)c3ccccc3-c3ccc(OC(F)(F)F)cc3)c2)CC1 [Example 139, ethyl γ-oxo-4-[3-[[[4′-(trifluoromethoxy)-[1,1′-biphenyl]-2-yl]carbonyl]amino]-phenoxy]-1-piperidinebutanoate] |
| 268 | Cc1ccc(NC(=O)N2CCC(Oc3cccc(NC(=O)c4cccc(C)c4-c4ccc(OC(F)(F)F)cc4)c3)CC2)cc1 [Example 29, N-(4-methylphenyl)-4-(3-[[[6-methyl-4′-(trifluoromethoxy)[1,1′-biphenyl]-2-yl]-carbonyl]amino]phenoxy]-1-piperidine-carboxamide] |
| 240 | Cc1cccc(C(=O)Nc2cccc(OC3CCN(Cc4cc5ccccc5o4)CC3)c2)c1-c1ccc(OC(F)(F)F)cc1 [Example 60, N-[3-[[1-(2-benzofuranylmethyl)-4-piperi-dinyl]oxy]phenyl]-6-methyl-4′-(trifluoro-methoxy)-[1,1′-biphenyl]-2-carboxamide] |
| 209 | C/C=C/C(=O)N1CCC(Oc2cccc(NC(=O)c3ccccc3-c3ccc(OC(F)(F)F)cc3)c2)CC1 [Example 137, N-[3-[[1-[(2E)-1-oxo-2-butenyl]-4-piperi-dinyl]oxy]phenyl]-4′-(trifluoromethoxy)-[1,1′-biphenyl]-2-carboxamide] |
| 176 | CC(C)(C)C(=O)N1CCC(Oc2cccc(NC(=O)c3ccccc3-c3ccc(OC(F)(F)F)cc3)c2)CC1 [Example 140, N-[3-[[1-(2,2-dimethyl-1-oxopropyl)-4-piperidinyl]oxy]phenyl]-4′-(trifluorometh-oxy)[1,1′-biphenyl]-2-carboxamide] |
| 82.7 | CCOC(=O)CNC(=O)N1CCC(Oc2cccc(NC(=O)c3cccc(C)c3-c3ccc(OC(F)(F)F)cc3)c2)CC1 [Example 31, ethyl N-[[4-[3-[[[6-methyl-4′-(trifluorometh-oxy)[1,1′-biphenyl]-2-yl]carbonyl]amino]-phenoxy]-1-piperidinyl]carbonyl]glycinate] |
